Assay results reported in PubChem BioAssay (NCI).
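Cells were grown in 96-well plates and exposed to each compound for 48 hours at five concentrations; endpoints were interpolated linearly between bracketing concentrations, or set to the highest concentration if not reached. The concentration for 50% growth inhibition is given as GI50. TGI denotes the concentration required for complete inhibition of growth.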

Tests used:
Assay in all cases: inhibition of tumour cell growth, NCI panel, 48 h
HCC-2998 colon = system: HCC-2998 colon
LOX IMVI melanoma = system: LOX IMVI melanoma
SNB-19 CNS = system: SNB-19 CNS
HOP-62 NSCLC = system: HOP-62 NSCLC
SW-620 colon = system: SW-620 colon
RXF 393 renal = system: RXF 393 renal
SK-OV-3 ovarian = system: SK-OV-3 ovarian
RPMI-8226 leukemia = system: RPMI-8226 leukemia
MOLT-4 leukemia = system: MOLT-4 leukemia
T-47D breast = system: T-47D breast

Row | SMILES | TGI (HCC-2998 colon) | TGI (LOX IMVI melanoma) | TGI (SNB-19 CNS) | TGI (HOP-62 NSCLC) | TGI (SW-620 colon) | TGI (RXF 393 renal) | TGI (SK-OV-3 ovarian) | TGI (RPMI-8226 leukemia) | TGI (MOLT-4 leukemia) | GI50 (SK-OV-3 ovarian) | GI50 (RPMI-8226 leukemia) | GI50 (T-47D breast) | TGI (T-47D breast) | GI50 (HCC-2998 colon) | GI50 (MOLT-4 leukemia) | GI50 (LOX IMVI melanoma) | GI50 (SNB-19 CNS) | GI50 (HOP-62 NSCLC) | GI50 (SW-620 colon)
1 | COc1ccc(C/C(=N/O)C(=O)NCCc2cc(Br)c(OCCCN(C)C)c(Br)c2)cc1Br | 28.5 µM | 30.1 µM | 32.6 µM | 30 µM | 31.8 µM | 38.5 µM |  |  |  |  |  |  |  |  |  |  |  |  | 
2 | Cc1cc(NCCCCCCCCNc2cc(C)nc3cc(N)ccc23)c2ccc(N)cc2n1 | 38.8 µM | 40.1 µM | 45.4 µM | 75.1 µM |  | > 100 µM | > 100 µM | > 100 µM | > 100 µM |  |  |  |  |  |  |  |  |  | 
3 | COC(=O)CC(NC(=O)OCc1ccccc1)C(C(C)=O)C(=O)OCc1ccccc1 (configuration not stated) |  | > 100 µM |  |  | > 31.6 µM |  | > 31.6 µM | > 31.6 µM | > 31.6 µM |  |  |  |  |  |  |  |  |  | 
4 | Cc1cn(C2CC(O)C(COC(=O)c3ccccc3)O2)c(=O)[nH]c1=O (configuration not stated) | > 100 µM | > 100 µM | > 100 µM | > 100 µM | > 100 µM | > 100 µM |  | > 100 µM | > 100 µM |  |  |  |  |  |  |  |  |  | 
5 | O=C1C2Nc3ccccc3SC2C(=O)N1c1ccc(Br)cc1 (configuration not stated) | > 100 µM | > 100 µM | > 100 µM | 55.1 µM | > 100 µM | 61.8 µM | 61.1 µM | > 100 µM | > 100 µM |  |  |  |  |  |  |  |  |  | 
6 | CC(=O)OCC1OC(n2cc(F)c(=O)[nH]c2=O)C(NC(=O)N(CCCl)N=O)C(OC(C)=O)C1OC(C)=O (configuration not stated) |  | > 100 µM | > 100 µM | > 100 µM | > 100 µM |  | > 100 µM | > 100 µM | > 100 µM |  |  |  |  |  |  |  |  |  | 
7 | O=C(/C=C/c1cc(Cl)cc(Cl)c1O)c1cccc(O)c1 | > 100 µM | 25.5 µM | > 100 µM | > 100 µM | > 100 µM | > 100 µM | > 100 µM | > 100 µM | 46.6 µM |  |  |  |  |  |  |  |  |  | 
8 | O=C(Oc1cccc2cccnc12)c1cc2c(cc1Cl)SC(N(c1ccc(F)cc1)S(=O)(=O)c1ccc(Br)s1)=NS2(=O)=O | > 100 µM | 64.2 µM | > 100 µM | > 100 µM | > 100 µM |  | > 100 µM | 96.3 µM | > 100 µM | > 100 µM | 28.6 µM | 4.93 µM | 38.9 µM | 43.5 µM | 28.7 µM | 15.8 µM | 28.8 µM | 50.8 µM | 25.3 µM
9 | COC(=O)CCC(NC(=S)N/N=C(\C)c1cnc2ccccc2n1)C(=O)OC (configuration not stated) | > 100 µM | 66.3 µM | > 100 µM | > 100 µM | > 100 µM | 86 µM | > 100 µM | 36.8 µM | 59.4 µM |  |  |  |  |  |  |  |  |  | 
10 | COC(=O)C(C(=O)C(=O)Nc1c(C)cccc1C)c1cnc2ccccc2n1 (configuration not stated) | > 100 µM | > 100 µM | > 100 µM |  | > 100 µM | > 100 µM | > 100 µM | > 100 µM | > 100 µM |  |  |  |  |  |  |  |  |  | 
11 | O=C(N/C(=C\c1ccc(Cl)cc1)c1nc2ccccc2[nH]1)c1ccccc1 |  | 31.5 µM | 88 µM |  | 64 µM | 42.7 µM | 79.4 µM | 42.6 µM | 43.2 µM |  |  |  |  |  |  |  |  |  | 
12 | Cc1nc(-n2nc(-c3ccccc3)cc2-c2ccccc2)sc1C(=O)/C=C/c1ccc(/C=C/C(=O)c2sc(-n3nc(-c4ccccc4)cc3-c3ccccc3)nc2C)cc1 | 39.3 µM | 40.6 µM | 42 µM | 54.2 µM | > 100 µM | 42.9 µM | > 100 µM |  | 68.6 µM |  |  |  |  |  |  |  |  |  | 
